Source: PMC5007466, “VCP recruitment to mitochondria causes mitophagy impairment and neurodegeneration in models of Huntington's disease” (Nature Communications, 2016)

How the values were obtained:
HD mouse striatal cells = assay: ER stress response (GRP78 western blot); assay type: cell-based; conditions: thapsigargin 1 μM or tunicamycin 10 μg/ml, 16 h, with HV-3 3 µM
Experimental: mouse striatal cells were treated with thapsigargin (1μM) or tunicamycin (10μ g/ml) for 16 hours i n the presence or absence of HV -3 (3 µM). GRP78 total protein levels were determined by western blot analysis. Representative blots of three independent experiments are shown. Actin was used here as a loading control. (b) Tw e n t y -four hours of serum starvation was performed in HD mouse striatal cells.
Caspase-3 activity analysis was performed in the indicated groups. Data are mean ± SEM of three independent experiments. (c) Flag-VCP and GFP-LC3B were co-transfected into HdhQ7 striatal cells.
Total lysates were isolated after 36 hours of transfection. The GFP -LC3B levels were examined by western blot analysis. Actin was used as a loading control. Histogram: quantitation of GFP-LC3B total protein level. Data are mean ± SEM of three independent experiments.
(1 picture or pasted object on this page, not shown here)

[1] = tested on: HD patient-iPS cell derived neurons; assay: Mitochondrial length along neurites; assay type: cell-based, human; conditions: 1 μM per day for 5 days
Experimental: iPS cells from a normal subject and a HD patient (carrying 41 CAG repeats) were differentiated into neurons using the protocol from our previous studies. Briefly, iPS cells were plated onto 6-well plates precoated with 2.5% Matrigel and allowed to reach 90% confluence in feeder-free medium. For the first 10 days, cells were treated with SB431542 (10 μM; Tocris Bioscience) and Noggin (100 ng/ml) in Neural Media (NM) containing Neurobasal and DMEM (1:1), B27 supplement minus vitamin A (50 × , Invitrogen), N2 supplement (100 × , Invitrogen), GlutaMax (Invitrogen, 100 × ), FGF2 ([…]) and EGF ([…]), 100 units per ml penicillin and 100 μg ml^−1 streptomycin). For the next 10 days, cells were treated with human recombinant Sonic hedgehog (SHH, 200 ng/ml), DKK1 (100 ng/ml) and BDNF (20 ng/ml) and 10 μM Y27632 (Sigma) in neuronal differentiation medium containing Neurobasal and DMEM (1:3), B27, N2, GlutaMax and PS. […]
In patient-iPS cell-derived neurons, to ensure the observation of mitochondria in the medium spiny neurons, the cells were stained with a mitochondrial marker (anti-TOM20, 1:500) and markers for medium spiny neurons (DARPP-32, 1:200, Epitomics). The quantitation of neurite length was conducted only in the neurons immunopositive for both DARPP-32 and Tuj1 (neuron-specific class III beta-tubulin, 1:5,000, Covance). At least 50 neurons/group were counted.

C57Black mice = assay: Blood biochemistry of naive mice; assay type: in vivo, mouse; conditions: 3 mg/kg/day, 4 weeks
Experimental: Supplementary Figure 8 : Toxicity analysis of HV -3in naïve mice .
We performed a toxicity analysis of HV-3 in mice. Six -week-old C57Black mice were treated with saline or peptide HV-3 at 3mg/kg/day by Alzet pump implantation. After 4- week treatment, the plasma, blood and whole mouse bodies of mice were collected. Examination on blood chemistry (Supplementary Table 1), hematology (Supplementary Table 2) and general necropsy of mice were performed at the Animal Diagnostic Laboratory at Stanford University. The experimenter who conducted the analysis was blind to the treatment groups. Automated hematology was performed on the Sysmex XT-2000iV analyzer system. Blood smears were made for all full CBC samples and reviewed by a medical technologist. Manual differentials were performed as indicated by species and automated analysis. Chemistry analysis was performed on the Siemens Dimension Xpand analyzer. […]
Student’s t test. Four-week sustained treatment with HV-3 by pump implantation had no effects on blood chemistry (Supplementary Table 1), hematology (Supplementary Table 2), and gross necropsy of naïve mice when compared to mice treated with saline. A four-week treatment with HV-3 had […] on immuno-density of CD3, a marker of T-cell for adaptive immune response, in the brains and spleens of naïve mice (a). Treatment with HV-3 had no effects on the size and weight of the spleens (b). […]
Table 1: Effects of 4-w eek treatment w ith HV-3 on blood biochemistry of naïve mice […]
M ean SD M ean SD p-value unit n

CSCC[C@H](NC(=O)[C@@H](NC(=O)[C@H](CC(C)C)NC(=O)[C@@H](NC(=O)[C@H](Cc1c[nH]cn1)NC(=O)CCCCCNC(=O)[C@H](CCCNC(=N)N)NC(=O)[C@H](CCCNC(=N)N)NC(=O)[C@H](CCCNC(=N)N)NC(=O)[C@H](CCC(N)=O)NC(=O)[C@H](CCCNC(=N)N)NC(=O)[C@H](CCCNC(=N)N)NC(=O)[C@H](CCCCN)NC(=O)[C@H](CCCCN)NC(=O)[C@H](CCCNC(=N)N)NC(=O)CNC(=O)[C@@H](N)Cc1ccc(O)cc1)C(C)C)C(C)C)C(=O)N[C@@H](CS)C(=O)N[C@@H](C)C(=O)N[C@H](C(N)=O)[C@@H](C)O [HV-3]
ER stress response (GRP78) (HD mouse striatal cells): no effect on the ER stress response | mitochondrial length along neurites [1]: improved MMP and mitochondrial length along neurites | ALT (C57Black mice; mean, n = 4/group): 71.00 U/L | AST (C57Black mice; mean, n = 4/group): 237.25 U/L | Albumin (C57Black mice; mean, n = 4/group): 2.95 g/dL | Alkaline Phosphatase (C57Black mice; mean, n = 4/group): 108.00 IU/L | Anion Gap (C57Black mice; mean, n = 4/group): 33.08 mmol/L | BUN (C57Black mice; mean, n = 4/group): 27.50 mg/dL | Carbon Dioxide (C57Black mice; mean, n = 4/group): 16.45 mmol/L | Chloride (C57Black mice; mean, n = 4/group): 109.00 mmol/L | Creatinine (C57Black mice; mean, n = 4/group): 0.40 mg/dL | Globulin (C57Black mice; mean, n = 4/group): 2.20 | Glucose (C57Black mice; mean, n = 4/group): 312.25 mg/dL | Na/K Ratio (C57Black mice; mean, n = 4/group): 20.96 | Phosphorus (C57Black mice; mean, n = 4/group): 8.45 mg/dL | Potassium (C57Black mice; mean, n = 4/group): 7.28 mmol/L | Sodium (C57Black mice; mean, n = 4/group): 151.25 mmol/L | T.Protein (C57Black mice; mean, n = 4/group): 5.15 g/dL | Total Bilirubin (C57Black mice; mean, n = 4/group): 0.13 mg/dL | Calcium (C57Black mice; mean, n = 4/group, p 0.04 versus saline): 9.78 mg/dL | blood chemistry (overall) (C57Black mice; versus saline): no effects
